Values after ≈ are worked out from the molar mass of the structure shown.
Columns and labels:
NCI-H522 = test: cells; settings: Homo sapiens, NCI-H522, 48 h; for CC50: read-out: LC50
U251 = test: cells; settings: Homo sapiens, U-251, 48 h; for GI50: U251, 48 h; for CC50: read-out: LC50
MOLT-4 = test: cells; settings: Homo sapiens, MOLT-4, 48 h; for CC50: read-out: LC50
60 cancer cell lines = test: NCI-60 one-dose screen (10 μM); type: cell-based; settings: Homo sapiens; one dose of 10 μM, mean over 60 cancer cell lines; read-out: Mean Growth Percent (MGP)
Text: Additionally, the mean of the growth percentages (MGP) of each compound against all the 60 cancer cell lines is also reported, which is used as one of the selection criteria to continue with tests at five concentration doses.

LOX IMVI = test: cells; settings: Homo sapiens, 48 h; for CC50: read-out: LC50, LOX IMVI, 48 h
BT-549 = test: cells; settings: Homo sapiens, BT-549, 48 h; for CC50: read-out: LC50
ACHN = test: cells; settings: Homo sapiens, 48 h; for CC50: read-out: LC50
NCI-H226 = test: cells; settings: Homo sapiens, NCI-H226, 48 h; for CC50: read-out: LC50
SNB-19 = test: cells; settings: Homo sapiens, SNB-19, 48 h; for CC50: read-out: LC50
SR = test: cells; settings: Homo sapiens, 48 h; for CC50: read-out: LC50
A549/ATCC = test: cells; settings: Homo sapiens, A549, 48 h; for CC50: read-out: LC50
PC-3 = test: cells; settings: Homo sapiens, PC-3, 48 h; for CC50: read-out: LC50
MDA-MB-435 = test: cells; settings: Homo sapiens, MDA-MB-435, 48 h; for CC50: read-out: LC50
SK-MEL-2 = test: cells; settings: Homo sapiens, SK-MEL-2, 48 h; for CC50: read-out: LC50
NCI-H23 = test: cells; settings: Homo sapiens, NCI-H23, 48 h; for CC50: read-out: LC50
RPMI-8226 = test: cells; settings: Homo sapiens, RPMI-8226, 48 h; for CC50: read-out: LC50
HCT-116 = test: cells; settings: Homo sapiens, HCT-116, 48 h; for CC50: read-out: LC50
SW-620 = test: cells; settings: Homo sapiens, SW-620, 48 h; for CC50: read-out: LC50
MDA-MB-231/ATCC = test: cells; settings: Homo sapiens, MDA-MB-231, 48 h; for CC50: read-out: LC50
HOP-92 = test: cells; settings: Homo sapiens, HOP-92, 48 h; for CC50: read-out: LC50
T-47D = test: cells; settings: Homo sapiens, T47D, 48 h; for CC50: read-out: LC50
[1] = tested on: Microsporum gypseum (CCC 115); test: Antifungal broth microdilution (CLSI); type: cell-based; settings: Nannizzia gypsea; Mg: Microsporum gypseum
How it was run: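 Broth microdilution followed CLSI M27-A3 for yeasts and the filamentous-fungi reference method, in 200 μL final volume with DMSO-matched growth controls. Plates were incubated in the dark and humid at 30 °C for a time suited to each fungus; testing was done in triplicate.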

DU-145 = test: cells; settings: Homo sapiens, DU-145, 48 h; for CC50: read-out: LC50
IGROV1 = test: cells; settings: Homo sapiens, IGROV-1, 48 h; for CC50: read-out: LC50
NCI/ADR-RES = test: cells; settings: Homo sapiens, 48 h; for CC50: read-out: LC50
[2] = tested on: M. tuberculosis ATCC 27294; test: Antitubercular broth microdilution MIC; type: cell-based; settings: Mycobacterium tuberculosis; M. tuberculosis ATCC 27294 (H37Rv); read-out: Minimum inhibitory concentration (MIC)

## COc1cc(/C=C/C(=O)c2cc(OC)c(OC)c(OC)c2)ccc1Oc1nc(Nc2ccc(F)cc2)nc(N(C)C)n1 [21d]
NCI-H522
  GI50: 1.47 µM
  CC50: 7.11 µM
U251
  GI50: 0.503 µM
  CC50: 9.59 µM
MOLT-4
  GI50: 0.472 µM
  CC50: > 100 µM
60 cancer cell lines
  activity at 10 µM: -33.4%
LOX IMVI
  GI50: 0.478 µM
  CC50: 4.11 µM
BT-549
  GI50: 1.56 µM
  CC50: 6.56 µM
ACHN
  GI50: 2.3 µM
  CC50: 50.6 µM
NCI-H226
  GI50: 1.44 µM
  CC50: 7.24 µM
SNB-19
  GI50: 1.86 µM
  CC50: 18.5 µM
SR
  GI50: 0.7 µM
  CC50: > 100 µM
A549/ATCC
  GI50: 4.49 µM
  CC50: 54.7 µM
PC-3
  GI50: 2.77 µM
  CC50: > 100 µM
MDA-MB-435
  GI50: 1.63 µM
  CC50: 7.69 µM
SK-MEL-2
  GI50: 1.69 µM
  CC50: 8.47 µM
NCI-H23
  GI50: 1.63 µM
  CC50: 8.08 µM
RPMI-8226
  GI50: 0.751 µM
  CC50: > 100 µM
HCT-116
  GI50: 1.4 µM
  CC50: 7.24 µM
SW-620
  GI50: 1.55 µM
  CC50: 6.89 µM
MDA-MB-231/ATCC
  GI50: 1.48 µM
  CC50: 8.63 µM
HOP-92
  GI50: 1.67 µM
  CC50: 50.9 µM
T-47D
  GI50: 1.87 µM
  CC50: > 100 µM
[1]
  MIC: > 250 µg/mL
DU-145
  GI50: 3.99 µM
  CC50: 67.9 µM
IGROV1
  GI50: 1.93 µM
  CC50: 12.2 µM
NCI/ADR-RES
  GI50: 1.42 µM
  CC50: 8.08 µM

## COc1ccc(/C=C/C(=O)c2ccc(S(=O)(=O)NCCNc3nc(Nc4ccc(F)cc4)nc(N(C)C)n3)cc2)cc1 [24c]
NCI-H522
  GI50: 2.55 µM
  CC50: 67.1 µM
U251
  GI50: 6.7 µM
  CC50: 55.3 µM
MOLT-4
  GI50: 3.12 µM
  CC50: > 100 µM
60 cancer cell lines
  activity at 10 µM: 24.7%
LOX IMVI
  GI50: 3.23 µM
  CC50: 34 µM
BT-549
  GI50: 13.2 µM
  CC50: 56.7 µM
ACHN
  GI50: 3.4 µM
  CC50: > 100 µM
NCI-H226
  GI50: 3.8 µM
  CC50: > 100 µM
SNB-19
  GI50: 5.58 µM
  CC50: > 100 µM
SR
  GI50: 2.97 µM
  CC50: > 100 µM
A549/ATCC
  GI50: 6.54 µM
  CC50: > 100 µM
PC-3
  GI50: 3.5 µM
  CC50: > 100 µM
[2]
  MIC: 25 µg/mL (≈ 42.3 µM)
MDA-MB-435
  GI50: 5.47 µM
  CC50: 79.6 µM
SK-MEL-2
  GI50: 8.1 µM
  CC50: 53.4 µM
NCI-H23
  GI50: 10.4 µM
  CC50: > 100 µM
RPMI-8226
  GI50: 2.96 µM
  CC50: > 100 µM
HCT-116
  GI50: 1.86 µM
  CC50: 7.07 µM
SW-620
  GI50: 5.42 µM
  CC50: 52.3 µM
MDA-MB-231/ATCC
  GI50: 2.73 µM
  CC50: 63 µM
HOP-92
  GI50: 3.25 µM
  CC50: > 100 µM
T-47D
  GI50: 3.78 µM
  CC50: > 100 µM
[1]
  MIC: > 250 µg/mL
DU-145
  GI50: 7.54 µM
  CC50: > 100 µM
IGROV1
  GI50: 10.8 µM
  CC50: > 100 µM
NCI/ADR-RES
  GI50: 5.66 µM
  CC50: > 100 µM
